pIC50: −log10 of the molar value. Like-named read-outs stand apart in the source and are kept apart here.
Experiments:
[1] = test system: human pancreatic cancer cells MIA PaCa2 xenograft; assay: Xenograft Tumor Model (MIA PaCa2); type: in vivo, female athymic nude mice; details: for Delta T/C % or Regression %: oral gavage, 14 days
Description: The purpose of this assay is to measure reduction in tumor volume in response to test compound administration. Expand human pancreatic cancer cells MIA PaCa2 (ATCC, # CRL1420) in culture, harvest and inject 5×10e^6 cells in 200 μL of 1:1 HBSS+matrigel solution subcutaneously on the rear right flank of female athymic nude mice (22-25 g, Harlan Laboratories). Measure tumor growth and body weight twice per week beginning the seventh day after the implantation. When tumor sizes reach 200-400 mm^3, randomize animals and group into groups of eight to ten animals. Prepare test compound in an appropriate vehicle (vehicle: […]/0.25% TWEEN® 80/0.05% Antifoam) and administer by oral gavage daily for 14 days. Tumor response is determined by tumor volume measurement performed twice a week during the course of treatment. Body weight is taken as a general measure of toxicity.
Regression % is calculated when the endpoint volume is below baseline. The formula is 100*(T−T0)/T0. Where T0 is the mean baseline tumor volume for the treated group. Grand mean of all groups from baseline (randomization) at day 20 used to compute % change of T/C.

[2] = test system: ERK substrate (RSK) phosphorylation in HCT116 colorectal cancer cell line; assay: ERK1/2 Cell Mechanistic Assay (pRSK1 Alphascreen Assay); type: cell-based; details: Homo sapiens, HCT-116, HCT116 cells, 2 h, n=8, read-out: IC50, ERK substrate (RSK) phosphorylation in tumor cells
Description: The purpose of this assay is to measure the ability of a compound to inhibit ERK signaling in cancer cells in vitro. Carry out the pRSK1 Alphascreen assay using the HCT116 colorectal cancer cell line (ATCC, # CCL-247). Routinely culture HCT116 cells in Dulbecco's Modified Eagle's Medium (DMEM) (Hyclone, # SH30022) growth medium containing 5%0/Fetal Bovine Serum (FBS) (Gibco, #16000-044) in T-150 flasks and incubate in a 5% CO2 incubator at 37° C. Harvest cells when they become confluent and freeze in freezing medium at 1×10e^7 cells/mL as “assay ready frozen cells” and store in liquid nitrogen. To run the assay, plate 40,000 HCT116 cells/well in a 96-well tissue culture plate and incubate at 37° C. in a 5% CO2 incubator overnight. Test compounds at 10 concentrations starting at a 20 μM top concentration and utilize a 1:3 dilution scheme (20 μM to 0.001 μM) with a final DMSO concentration of 0.5% (v/v). Add compounds in 20 μL serum free growth medium and incubate at 37° C. for two hours. Remove growth medium and add 50 μL of 1× lysis buffer [Cell Signaling Technology, #9803] containing 1× holt protease and […] inhibitor cocktail [Thermo, #78441] to each well and incubate at room temperature for 10 minutes on a shaker. […] Measure the fluorescence intensity in each well by reading the plates in ENVISION® (PerkinElmer) plate reader. […]

[3] = test system: KRAS mutant (G12V) Capan-2 pancreatic cancer xenograft; type: in vivo; details: for Delta T/C % or % Regression: Day 34, Compound A 50 mg/kg QD PO, gemcitabine 100 mg/kg once weekly IP; for Difference (Treatment 1 − Treatment 2), tumor growth: Treatment 1 = Vehicle QD x 28 PO, log10 tumor volume, Compound A 50 mpk QD x 28 PO, Gemcitabine 100 mpk Q7D x 4 IP; for inhibition of tumor growth: single agents vs vehicle control group, combination vs each single agent alone
Description: Human pancreatic cancer cell line Capan-2 (ATCC cat # HTB-80) are cultured in DMEM supplemented with 10% fetal bovine serum, sodium pyruvate, nonessential amino acids, L-glutamine, and penicillin-streptomycin (Invitrogen, Carlsbad, Calif.). All cultures are maintained in a humidified incubator at 37° C. under 5% CO2/95% air free off mycoplasma and pathogenic murine viruses. The cells are used for experiments at passages <7 after recovery from frozen stocks.
Female CB-17 SCID nude mice are ordered from Charles River Laboratories International, Inc. All animals are acclimated for one week before the use and are housed and maintained in specific pathogen-free conditions in accordance with the guidelines of the American Association for Laboratory Animal Care and all current regulations and standards of the U.S. Departments of Agriculture and of Health and Human Services and the NIH. The experiment protocol is approved by the Eli Lilly and Company Animal Care and Use Committee.
Logarithmically growing Capan-2 cells (5×10^6/200 μL, single-cell suspensions of over 95% viability in Hank's medium mixed with equal volume of Matrigel (Becton Dickinson & Co., San Jose, Calif.)) are subcutaneously injected into the flank of the mice. When the average tumor volume reaches about 200 to 300 mm^3 following tumor cell implantation, the animals are randomized into different groups (n=5). The animals are treated with vehicle control (1% HEC/0.25% TWEEN® 80/0.05% Antifoam, daily, orally), Compound A (50 mg/kg, QD, PO), gemcitabine (100 mg/kg, once weekly, intraperitoneal), and the combination for 4 weeks. Compound A was formulated in 1% HEC/0.25% TWEEN® 80/0.05% Anti foam and gemcitabine is formulated in phosphate buffered saline (lx). Tumor volume and body weight are measured twice weekly. Tumor volume is estimated by using the formula: v=l×w2×0.536 where l=larger of measured diameter and w=smaller of perpendicular diameter.
The statistical analysis of the tumor volume data begins with a data transformation to a log scale to equalize variance across time and treatment groups. The log volume data are analyzed with a two-way repeated measures analysis of variance by time and treatment using the MIXED procedures in SAS software (Version 9.3). The correlation model for the repeated measures is Spatial Power. Treated groups are compared to the control group at each time point. The MIXED procedure is also used separately for each treatment group to calculate adjusted means and standard errors at each time point. Both analyses account for the autocorrelation within each animal and the loss of data that occurs when animals with large tumors are removed from the study early. The adjusted means and standard errors (s.e.) are plotted for each treatment group versus time. Analysis for tumor volume is based on log10 and spatial power covariance structure. P value is based on the comparison between two specific groups.
First, the usual repeated measures model is fit to log volume versus group and time. Then contrast statements are used to test for an interaction effect at each time point using the 2 specific treatments that are combined. This is equivalent to the Bliss Independence method and assumes that tumor volumes can, in theory, reach zero, i.e., complete regression. The expected additive response (EAR) for the combination is calculated on the tumor volume scale as: response (EAR) EAR volume=V1*V2/V0, where V0, V1, and V2 are the estimated mean tumor volumes for the vehicle control, treatment 1 alone, and treatment 2 alone, respectively. If the interaction test is significant, the combination effect is declared statistically more than additive or less than additive depending on the observed combination mean volume being less than or more than the EAR volume, respectively. Otherwise, the statistical conclusion is additive. In addition, a biologically relevant range of additivity can be defined as X % above and below the EAR volume. Typically, X would be 25 to 40%. […]

Row | SMILES | Delta T/C % or Regression % ([1]; MIA PaCa2 xenograft, 25 mg/kg QD) [%] | Delta T/C % or Regression % ([1]; MIA PaCa2 xenograft, 50 mg/kg QD) [%] | Delta T/C % or Regression % ([1]; MIA PaCa2 xenograft, 100 mg/kg QD) [%] | Delta T/C % or Regression % ([1]; MIA PaCa-2 xenograft, 12.5 mg/kg QD) [%] | anti-tumor activity ([1]; human pancreatic cancer xenograft model (MIA PaCa2)) | pIC50 [2] | Delta T/C % or % Regression [3] [%] | Difference (Treatment 1 − Treatment 2), tumor growth [3] | inhibition of tumor growth [3] | Delta T/C % or % Regression ([3]; listed as gemcitabine) [%]
1 | Cn1nccc1Nc1nccc(-c2cc3c(s2)C(C)(C)N(CCN2CCOCC2)C3=O)n1 [Compound A, 6,6-Dimethyl-2-{2-[(1-methyl-1H-pyrazol-5-yl)amino]pyrimidin-4-yl}-5-[2-(morpholin-4-yl)ethyl]-5,6-dihydro-4H-thieno[2,3-c]pyrrol-4-one] | 2 | −22 | −66 | 32 | significant anti-tumor activity | 6.37 | 40 | 0.397 | partial inhibition of tumor growth | –
2 | Nc1ccn([C@@H]2O[C@H](CO)[C@@H](O)C2(F)F)c(=O)n1 [Gemcitabine, gemcitabine] | – | – | – | – | – | – | 24 | 0.633 | partial inhibition of tumor growth | 20
